Reference: patent US12036195B2, “Co-crystals of NURR1-lbd in complex with a cyclopentenone prostaglandin and modulators of NURR1” (Nanyang Technological University, priority 2016, dated 2024)

Legend:
[1] = molecular target: T1, Nurr1 (Homo sapiens, UniProt P43354); conditions: high throughput screening of >340,000 compounds; cited from earlier work
[2] = molecular target: T2, Nurr1-LBD (Homo sapiens, UniProt P43354); test: 2D 1H-15N HSQC NMR chemical shift perturbation on Nurr1-LBD; type: binding; conditions: 15N-labeled Nurr1-LBD, 1:10 molar ratio protein:ligand; residues in helix 11 and 12 perturbed
T2 construct: The human Nurr1-LBD construct coding for residues 328-598 (hNurr1-LBD) was cloned into pETSUMO expression vector; SUMO tag (pETSUMO vector, purified on Ni2+-NTA) (cleaved yes); made in house; host or cells: E. coli BL21 (DE3)
T2 sequence (P43354 328-598): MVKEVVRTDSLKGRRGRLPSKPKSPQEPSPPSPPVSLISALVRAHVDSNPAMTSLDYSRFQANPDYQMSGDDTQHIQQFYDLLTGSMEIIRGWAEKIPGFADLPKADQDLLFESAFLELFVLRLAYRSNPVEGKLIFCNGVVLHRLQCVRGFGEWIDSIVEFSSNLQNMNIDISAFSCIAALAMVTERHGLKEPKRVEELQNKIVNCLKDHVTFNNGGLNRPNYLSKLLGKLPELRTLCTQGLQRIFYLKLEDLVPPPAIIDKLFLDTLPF
Experimental: 0.2 mM uniformly ^15-N labeled Nurr1-LBD protein was prepared in 20 mM sodium phosphate buffer containing 50 mM NaCl, 0.01% NaN3 (pH 7.5) in 90% H2O/10% D2O. The interaction between Nurr1-LBD and PGA1/PGA2 (in DMSO vehicle) was examined using two dimensional HSQC comparing free protein sample with 1:10 molar ratio of Nurr1-LBD:PGA1/PGA2. The backbone resonance and sequence specific resonance assignments were previously assigned for Nurr1-LBD as reported (Kim, et. al. Proc Nat Acad Sci 112, 8756-8761 (2015)). The binding sites of PGA1/PGA2 were mapped on the crystal structure of Nurr1-LBD (PDB code: 1OVL) after determining the chemical shift perturbations following the addition of PGA1/PGA2 against the spectrum of the free protein. Bruker Avance II 700 MHz spectrometer fitted with a 5 mm triple resonance, z-axis-gradient cryoprobe at 298K was used for all NMR experiments. All spectra were processed directly to SPARKY format in UNIX and analyzed using the SPARKY 3.114 program (Goddard and Kneller, SPARKY In, 3.114 Edition: Univ of Calif (2002)).
Prostaglandins are a family of biologically potent lipids from membrane phospholipids; comprised of a C20-unsaturated fatty acid containing a cyclopentenone ring. […]

[3] = molecular target: T2, Nurr1-LBD; test: Top-down mass spectrometry of covalent coupling to Nurr1-LBD; type: binding; conditions: overnight incubation at 1:1.5 molar ratio
Experimental: Nurr1-LBD at ˜300 μM prepared in 0.1% FA in water was analyzed using a Dionex UltiMate 3000 UHPLC coupled to a linear quadrupole ion trap-Fourier transform Ultra apparatus (LTQ-FT Ultra, Thermo Scientific Inc.). Protein solution (5 μL) was injected directly into the detector carried by 0.1% FA in water at 500 μL/min. On-line ionization was performed using a Michrom CaptiveSpray ion source (Bruker-Michrom Inc., Auburn, USA) at an electrospray potential of 1.5 kV and capillary temperature of 200° C. Data acquisition was conducted in profile and positive mode (600-1600 m/z range). Mass spectrometry (MS) data was acquired for 60 min in the FT-ICR cell at a resolution of 100,000 (at 400 m/z) and maximum injection time of 500 msec using Xcalibur version 2.0 SR2 (Thermo Scientific Inc., Bremen, Germany). The automatic gain control target for FT-ICR was set to 5.0e+05. For each scan 100 microscans were averaged. […]
To exclude the possibility that the covalent coupling of PGA1/PGA2 to human Nurr1-LBD domain seen in the crystal structures was an artifact of crystallization or exposure to high-intensity X-rays, Nurr1-LBD at ˜ 300 μM prepared in 0.1% FA in water was analyzed using a Dionex UltiMate 3000 UHPLC coupled to a linear quadrupole ion trap-Fourier transform Ultra apparatus (LTQ-FT Ultra, Thermo Scientific Inc.). […]

[4] = test system: HL60 cells; conditions: direct interaction with mitochondria; cited from earlier work
[5] = test system: LRRK2 G2019S Drosophila; test: Climbing assay and survival in LRRK2 G2019S Drosophila; type: in vivo, Drosophila melanogaster
Experimental: FIG. 4. Mitigation of locomotor deficits and mortality in LRRK2 G2019S Drosophila by CyPGs. Drosophila melanogaster expressing LRRK2 G2019S mutation driven by ddc-Gal4 result in late-onset PD in these flies. Treatment with 50 μM PGA2 was able to improve their climbing ability from 9.7% to 36.4% when compared to age-matched mutant flies (0.5% EtOH drug vehicle). Survival rate was determined by counting the number of flies that survived every 2-3 days for 55 days post-eclosion. Flies were treated with cornmeal-agar medium containing 50 μM PGA2 for 25 days at day 30 post-eclosion and climbing assay was carried out on day 55. The number of flies that climbed beyond a median line in a vertical column (length 25 cm; diameter 1.5 cm) were counted after one minute for an average of six times. Results represent mean±SEM of climbing scores from three independent experiments. Student's t-test (unpaired) was conducted to determine statistical significance between G2019S (vehicle treated) and PGA2-treated mutant flies: *p<0.05.
Flies expressing Leucine-rich repeat kinase 2 (LRRK2) with G2019S mutation driven by dopa decarboxylase (ddc)-Gal4 leads to late-onset PD in these flies (Liu, et al. Proc Natl Acad Sci USA 105, 2693-2698, doi:10.1073/pnas.0708452105 (2008)). […]

[6] = molecular target: T1, Nurr1; conditions: binding with Nurr1-LBD at its non-canonical ligand-binding site; cited from earlier work

T1 sequence (P43354 whole entry, species assumed, the tested form may be a part): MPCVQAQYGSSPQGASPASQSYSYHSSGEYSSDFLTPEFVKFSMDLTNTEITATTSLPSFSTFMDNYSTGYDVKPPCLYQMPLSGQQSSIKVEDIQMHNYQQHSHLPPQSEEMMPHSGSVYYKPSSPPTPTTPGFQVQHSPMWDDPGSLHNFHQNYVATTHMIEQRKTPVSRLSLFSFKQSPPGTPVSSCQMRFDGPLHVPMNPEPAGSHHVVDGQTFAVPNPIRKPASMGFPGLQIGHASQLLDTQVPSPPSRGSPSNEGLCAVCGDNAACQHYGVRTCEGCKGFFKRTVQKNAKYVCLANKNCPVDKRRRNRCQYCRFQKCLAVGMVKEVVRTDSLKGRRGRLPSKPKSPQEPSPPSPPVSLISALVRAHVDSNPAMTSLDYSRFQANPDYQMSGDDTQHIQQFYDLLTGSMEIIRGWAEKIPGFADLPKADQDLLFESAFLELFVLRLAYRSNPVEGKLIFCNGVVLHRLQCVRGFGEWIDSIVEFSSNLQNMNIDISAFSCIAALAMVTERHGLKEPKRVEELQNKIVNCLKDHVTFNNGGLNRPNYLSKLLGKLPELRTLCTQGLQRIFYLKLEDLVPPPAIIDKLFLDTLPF

Compound	interaction with Nurr1-LBD by chemical shift perturbations [2]	fraction of Nurr1 that binds the ligand covalently [3]	transcriptional function of Nurr1 [6]	further results
Sc1ncnc2nc[nH]c12 [6-mercaptopurine]				activation of Nurr1 [1]: activate Nurr1 through a region in the amino terminus lacking a LBD
CCCCCC(O)/C=C/[C@H]1C=CC(=O)[C@@H]1CCCCCCC(=O)O (stereo partly shown) [PGA1, prostaglandin A1]	direct physical interaction	about 50%		
CCCCCC(O)/C=C/[C@H]1C=CC(=O)[C@@H]1C/C=C\CCCC(=O)O (stereo partly shown) [PGA2, prostaglandin A2]	direct physical interaction	about 50%		apoptosis in HL60 cells [4]: induce intrinsic apoptosis in HL60 cells; climbing ability ([5]; 50 μM in medium for 25 days from day 30 post-eclosion, assay on day 55, vehicle-treated mutant flies 9.7%): 36.4%; overall survival rate ([5]; PGA2 treated flies compared to vehicle treated mutant flies, 55 days post-eclosion): improvement to their overall survival rate
CCN(CC)Cc1cc(Nc2ccnc3cc(Cl)ccc23)ccc1O [amodiaquine]			enhance the transcriptional function of Nurr1	
CCN(CC)CCCC(C)Nc1ccnc2cc(Cl)ccc12 (stereo not shown) [chloroquine]			enhance the transcriptional function of Nurr1	
